Measurements taken from US8735584B2 (Merck Patent GmbH, priority 2008, dated 2014).
pIC50: −log10 of the molar value.

Experiments:
Format in all cases: biochemical
AurA = biological target: T1, AurA (Homo sapiens, UniProt O14965); test: Desktop Profiler kinase panel, AurA; conditions: for inhibition at 1 µM: 1 micromolar concentration of the compound; for inhibition at 10 µM: 10 micromolar concentration of the compound, read-out: Percent Inhibition AurA
T1 construct: purchased Caliper Life Sciences
T1 sequence (O14965 1-403): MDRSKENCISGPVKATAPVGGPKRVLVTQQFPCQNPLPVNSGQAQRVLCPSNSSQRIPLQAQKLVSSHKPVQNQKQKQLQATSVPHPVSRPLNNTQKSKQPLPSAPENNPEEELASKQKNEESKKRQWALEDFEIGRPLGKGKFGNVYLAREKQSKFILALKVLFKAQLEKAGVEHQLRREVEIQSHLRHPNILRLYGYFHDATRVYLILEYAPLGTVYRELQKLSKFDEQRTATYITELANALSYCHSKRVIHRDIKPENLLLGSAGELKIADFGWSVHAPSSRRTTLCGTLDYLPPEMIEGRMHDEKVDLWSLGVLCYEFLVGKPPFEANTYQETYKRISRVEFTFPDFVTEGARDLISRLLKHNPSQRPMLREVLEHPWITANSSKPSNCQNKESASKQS
Description: (§1) The Aurora assays described here are performed on two Caliper Life Sciences systems: the LC3000 and the Desktop Profiler. These provide data on enzyme activity via measurement of the relative amounts of phosphorylated or unphosphorylated fluorescently labelled substrate peptide at the end of an enzymatic reaction. These different states of peptide are resolved by applying a potential difference across the sample. The presence of the charged phosphate group on the product (as opposed to the substrate) causes a different peptide mobility between the two peptides. This is visualized by excitation of the fluorescent label on the substrate and product peptides and represented as peaks within the analysis software.
(§2) The Desktop Profiler utilizes the same principle as the LC3000 for calculating percentage conversion of a substrate to product. Caliper Life Sciences provides proprietary flash frozen pre-made 384 well plates containing selected kinases. Each column in the 384 well plate contains a particular selected kinase. A second plate, the ‘substrate plate’ contains a mix of fluorescently labeled peptide substrate and ATP. These are arranged in columns so that transfer for substrate plate to enzyme plate provides the correct enzyme with the correct substrate/ATP concentration. Compounds are added to a thawed enzyme plate in the desired format, in single concentrations. Reactions are initiated by transfer of the substrate/ATP mix from the substrate plate. The enzyme plate is incubated for 90 mins at 25 C. The reaction is stopped by addition of 70 ul of Stop Buffer (100 mM HEPES pH 7.5, 0.015% Brij-35, 10 mM EDTA (Sigma, E7889)).
(§3) Reading of the plate in the Profiler is identical to the LC3000, and the ratio between substrate and product peaks provides the activity of the enzyme in that well. This is best represented by a plate heat map which colors each well by percent inhibition as compared to positive and negative controls (no inhibitors and no ATP respectively).
(§4) In the following Tables 3a-4-b, which show the results of the desktop profiler measurements, “+” means 50-70% inhibition, “++” means 70-90% inhibition, and “+++” means >90% inhibition. The enzymes tested for profiling were ABL, AKT1, AKT2, AurA, CHK1, CHK2, CK1d, Erk1, Erk2, FYN, GSK3b, INSR, LCK, LYN, MAPKAPK2, MET, MSK1, p38a, PKA, PKCz, PKD2, PRAK, RSK1 and SRC.

FYN = biological target: T2, FYN (Homo sapiens, UniProt P06241); test: Desktop Profiler kinase panel, FYN; conditions: for inhibition at 10 µM: 10 micromolar concentration of the compound, read-out: Percent Inhibition FYN
T2 construct: purchased Caliper Life Sciences
T2 sequence (P06241 whole entry, species assumed): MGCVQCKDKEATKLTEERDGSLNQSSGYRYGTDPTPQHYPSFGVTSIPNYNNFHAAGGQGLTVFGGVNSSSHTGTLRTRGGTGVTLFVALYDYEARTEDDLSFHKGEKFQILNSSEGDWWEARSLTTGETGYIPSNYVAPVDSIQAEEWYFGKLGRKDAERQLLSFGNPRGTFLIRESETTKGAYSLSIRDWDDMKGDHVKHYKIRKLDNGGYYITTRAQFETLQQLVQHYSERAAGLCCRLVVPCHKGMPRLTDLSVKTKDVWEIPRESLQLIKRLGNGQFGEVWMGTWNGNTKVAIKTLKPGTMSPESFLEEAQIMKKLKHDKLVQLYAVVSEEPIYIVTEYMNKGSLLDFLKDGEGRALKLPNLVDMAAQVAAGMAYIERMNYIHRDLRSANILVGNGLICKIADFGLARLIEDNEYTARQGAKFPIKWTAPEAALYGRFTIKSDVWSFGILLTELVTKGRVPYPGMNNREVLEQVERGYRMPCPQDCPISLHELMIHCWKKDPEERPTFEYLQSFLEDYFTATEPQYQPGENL
Description: as §1, §2, §3, §4

ABL = biological target: T3, ABL (Homo sapiens, UniProt P00519); test: Desktop Profiler kinase panel, ABL; conditions: for inhibition at 10 µM: 10 micromolar concentration of the compound, read-out: Percent Inhibition ABL
T3 construct: purchased Caliper Life Sciences
T3 sequence (P00519 whole entry, species assumed): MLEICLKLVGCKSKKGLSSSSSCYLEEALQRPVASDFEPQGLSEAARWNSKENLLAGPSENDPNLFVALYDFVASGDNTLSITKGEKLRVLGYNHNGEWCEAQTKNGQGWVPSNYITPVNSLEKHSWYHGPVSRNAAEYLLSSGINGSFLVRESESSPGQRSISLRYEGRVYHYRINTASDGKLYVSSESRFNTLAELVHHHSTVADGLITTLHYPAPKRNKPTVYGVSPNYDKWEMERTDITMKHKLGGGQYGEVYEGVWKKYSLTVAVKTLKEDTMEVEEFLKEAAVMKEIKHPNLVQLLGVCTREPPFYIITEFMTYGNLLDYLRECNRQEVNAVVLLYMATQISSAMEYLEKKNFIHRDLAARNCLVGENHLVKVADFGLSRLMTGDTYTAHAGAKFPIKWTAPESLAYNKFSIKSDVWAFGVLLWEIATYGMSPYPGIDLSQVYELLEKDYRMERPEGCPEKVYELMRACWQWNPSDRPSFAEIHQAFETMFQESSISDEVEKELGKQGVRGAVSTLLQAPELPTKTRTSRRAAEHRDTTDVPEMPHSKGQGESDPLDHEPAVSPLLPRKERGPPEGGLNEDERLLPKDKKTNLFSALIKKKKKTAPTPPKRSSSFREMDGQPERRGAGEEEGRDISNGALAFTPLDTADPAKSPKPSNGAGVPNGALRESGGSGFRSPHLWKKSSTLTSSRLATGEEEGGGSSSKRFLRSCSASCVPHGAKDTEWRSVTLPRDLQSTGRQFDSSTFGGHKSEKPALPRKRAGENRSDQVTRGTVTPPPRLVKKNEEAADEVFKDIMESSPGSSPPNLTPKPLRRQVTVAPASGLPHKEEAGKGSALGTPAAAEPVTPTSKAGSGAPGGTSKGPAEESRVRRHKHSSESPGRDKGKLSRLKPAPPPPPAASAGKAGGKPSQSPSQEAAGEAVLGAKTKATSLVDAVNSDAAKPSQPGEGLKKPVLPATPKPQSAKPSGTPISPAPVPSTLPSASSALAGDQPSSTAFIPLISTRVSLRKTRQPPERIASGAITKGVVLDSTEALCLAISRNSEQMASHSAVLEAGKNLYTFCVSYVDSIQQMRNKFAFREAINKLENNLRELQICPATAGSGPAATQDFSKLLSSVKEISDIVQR
Description: as §1, §2, §3, §4

CHK2 = biological target: T4, CHK2 (Homo sapiens, UniProt O96017); test: Desktop Profiler kinase panel, CHK2; conditions: 10 micromolar concentration of the compound; read-out: Percent Inhibition CHK2
T4 construct: purchased Caliper Life Sciences
T4 sequence (O96017 whole entry, species assumed): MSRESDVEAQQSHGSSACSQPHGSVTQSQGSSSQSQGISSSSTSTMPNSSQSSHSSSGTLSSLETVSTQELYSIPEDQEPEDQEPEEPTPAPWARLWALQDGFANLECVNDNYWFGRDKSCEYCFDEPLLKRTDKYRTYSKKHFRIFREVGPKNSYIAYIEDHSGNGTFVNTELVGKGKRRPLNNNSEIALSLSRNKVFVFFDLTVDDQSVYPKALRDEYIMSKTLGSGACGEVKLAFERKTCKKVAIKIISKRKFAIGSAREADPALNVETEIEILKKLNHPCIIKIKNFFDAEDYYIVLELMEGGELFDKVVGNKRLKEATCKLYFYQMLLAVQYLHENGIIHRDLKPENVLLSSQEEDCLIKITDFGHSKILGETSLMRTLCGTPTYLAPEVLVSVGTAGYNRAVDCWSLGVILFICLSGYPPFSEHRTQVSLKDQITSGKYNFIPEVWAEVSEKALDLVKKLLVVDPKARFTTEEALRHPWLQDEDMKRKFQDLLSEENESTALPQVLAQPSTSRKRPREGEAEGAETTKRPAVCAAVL
Description: as §1, §2, §3, §4

SRC = biological target: T5, SRC (Homo sapiens, UniProt P12931); test: Desktop Profiler kinase panel, SRC; conditions: 10 micromolar concentration of the compound; read-out: Percent Inhibition SRC
T5 construct: purchased Caliper Life Sciences
T5 sequence (P12931 whole entry, species assumed): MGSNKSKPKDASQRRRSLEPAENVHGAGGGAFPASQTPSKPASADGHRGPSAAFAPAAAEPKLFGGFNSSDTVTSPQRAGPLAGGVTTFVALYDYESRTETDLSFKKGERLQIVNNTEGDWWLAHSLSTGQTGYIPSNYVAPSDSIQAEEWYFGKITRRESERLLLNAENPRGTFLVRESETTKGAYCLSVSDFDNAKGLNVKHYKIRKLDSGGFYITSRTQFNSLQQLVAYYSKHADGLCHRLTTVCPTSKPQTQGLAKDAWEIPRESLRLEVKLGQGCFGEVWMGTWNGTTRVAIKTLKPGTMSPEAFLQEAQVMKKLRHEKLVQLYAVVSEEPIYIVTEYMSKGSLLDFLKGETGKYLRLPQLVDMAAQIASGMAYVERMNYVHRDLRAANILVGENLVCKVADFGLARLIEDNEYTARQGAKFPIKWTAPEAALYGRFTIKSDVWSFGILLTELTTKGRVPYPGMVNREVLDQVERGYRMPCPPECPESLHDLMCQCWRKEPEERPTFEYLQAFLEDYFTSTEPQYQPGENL
Description: as §1, §2, §3, §4

GST-Aurora A = biological target: T6, GST-Aurora A (Homo sapiens, UniProt O14965); test: Aurora A IC50, Caliper LC3000 mobility shift assay; conditions: LC3000 method; 15 uM ATP (the KM value); read-out: Aurora Kinase A Activity (IC50)
T6 construct: N-terminal GST fusion with full length Aurora A (1-403 amino acids); purchased Carna Biosciences 05-101
T6 sequence (O14965 1-403): T1 sequence (O14965 1-403)
Summary of the method: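 Readout: percent conversion of FITC-LRRASLG (1 uM) to phosphopeptide, resolved electrophoretically on a Caliper LC3000, fitted against inhibitor concentration for IC50. Reaction: N-terminal GST full-length Aurora A, ATP at its KM (15 uM), pH 7.5 HEPES with MgCl2/DTT, 25 C for 90 min.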

LYN = biological target: T7, LYN (Homo sapiens, UniProt P07948); test: Desktop Profiler kinase panel, LYN; conditions: 10 micromolar concentration of the compound; read-out: Percent Inhibition LYN
T7 construct: purchased Caliper Life Sciences
T7 sequence (P07948 whole entry, species assumed): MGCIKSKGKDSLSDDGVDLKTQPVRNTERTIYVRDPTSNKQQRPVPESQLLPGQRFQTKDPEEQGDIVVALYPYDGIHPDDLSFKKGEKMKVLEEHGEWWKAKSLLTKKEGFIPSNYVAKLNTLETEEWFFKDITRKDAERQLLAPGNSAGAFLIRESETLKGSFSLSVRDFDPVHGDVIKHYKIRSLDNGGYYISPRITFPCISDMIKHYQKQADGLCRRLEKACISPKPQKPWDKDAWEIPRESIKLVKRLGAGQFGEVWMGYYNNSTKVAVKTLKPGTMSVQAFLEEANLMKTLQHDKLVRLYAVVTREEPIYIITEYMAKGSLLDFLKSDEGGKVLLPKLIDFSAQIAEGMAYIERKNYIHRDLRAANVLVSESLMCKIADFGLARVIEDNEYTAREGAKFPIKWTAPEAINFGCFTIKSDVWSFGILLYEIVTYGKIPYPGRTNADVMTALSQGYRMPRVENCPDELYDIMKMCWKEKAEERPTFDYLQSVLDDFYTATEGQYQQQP
Description: as §1, §2, §3, §4

[1] = 1 micromolar concentration of the compound

SMILES | inhibition at 10 µM (AurA) | pIC50 (GST-Aurora A) | also measured
COc1ccc(CNc2ccc3c(=O)[nH]c4ncccc4c3c2)cc1 [Example 33, 9-(4-Methoxy-benzylamino)-5H-benzo[c][1,8]naphthyridin-6-one] | 70 to 90% | – | inhibition at 1 µM (AurA): 50 to 70%
O=c1[nH]c2ncc(Cl)cc2c2ccccc12 [Example 9, 2-Chloro-5H-benzo[c][1,8]naphthyridin-6-one] | 50 to 70% | – | –
COc1ccc(Oc2ccnc3[nH]c(=O)c4ccccc4c23)cc1 [Example 125, 1-(4-Methoxy-phenoxy)-5H-benzo[c][1,8]naphthyridin-6-one] | – | – | inhibition at 1 µM (FYN; [1]): 70 to 90%; inhibition at 1 µM (ABL; [1]): 70 to 90%
COc1ccc(CNc2cnc3[nH]c(=O)c4ccccc4c3c2)cc1 [Example 37, 2-(4-Methoxy-benzylamino)-5H-benzo[c][1,8]naphthyridin-6-one] | 50 to 70% | – | –
COCCNc1ccc2c(=O)[nH]c3ncccc3c2c1 [Example 27, 9-(2-Methoxy-ethylamino)-5H-benzo[c][1,8]naphthyridin-6-one] | 70 to 90% | – | inhibition at 10 µM (CHK2): 50 to 70%
O=c1[nH]c2ncccc2c2cc(Cl)ccc12 [Example 6, 9-Chloro-5H-benzo[c][1,8]naphthyridin-6-one] | 50 to 70% | – | –
Nc1ccnc2[nH]c(=O)c3ccccc3c12 [Example 141, 1-Amino-5H-benzo[c][1,8]naphthyridin-6-one] | 50 to 70% | – | –
O=c1[nH]c2ncc(Nc3ccccc3)cc2c2ccccc12 [Example 12, 2-Phenylamino-5H-benzo[c][1,8]naphthyridin-6-one] | – | – | inhibition at 10 µM (FYN): 50 to 70%; inhibition at 10 µM (ABL): 70 to 90%
O=c1[nH]c2ncccc2c2cc(N3CCOCC3)ccc12 [Example 26, 9-Morpholin-4-yl-5H-benzo[c][1,8]naphthyridin-6-one] | 70 to 90% | – | inhibition at 10 µM (CHK2): 50 to 70%
COc1cccc(CNc2cnc3[nH]c(=O)c4ccccc4c3c2)c1 [Example 38, 2-(3-Methoxy-benzylamino)-5H-benzo[c][1,8]naphthyridin-6-one] | 50 to 70% | – | –
COc1ccccc1Nc1ccc2c(=O)[nH]c3ncccc3c2c1 [Example 30, 9-(2-Methoxy-phenylamino)-5H-benzo[c][1,8]naphthyridin-6-one] | > 90% | < 7.00 | inhibition at 10 µM (SRC): 50 to 70%; inhibition at 10 µM (FYN): 50 to 70%; inhibition at 10 µM (LYN): 70 to 90%; inhibition at 1 µM (AurA): 70 to 90%; inhibition at 10 µM (ABL): 50 to 70%
O=c1[nH]c2ncccc2c2cc(NCc3cccc(F)c3)ccc12 [Example 35, 9-(3-Fluoro-benzylamino)-5H-benzo[c][1,8]naphthyridin-6-one] | – | < 7.00 | inhibition at 1 µM (AurA): > 90%
COc1ccccc1CNc1cnc2[nH]c(=O)c3ccccc3c2c1 [Example 39, 2-(2-Methoxy-benzylamino)-5H-benzo[c][1,8]naphthyridin-6-one] | 50 to 70% | – | –
O=c1[nH]c2ncccc2c2cc(NCc3ccccc3)ccc12 [Example 25, 9-Benzylamino-5H-benzo[c][1,8]naphthyridin-6-one] | – | < 7.00 | inhibition at 1 µM (AurA): 70 to 90%
COc1ccc(Nc2ccc3c(=O)[nH]c4ncccc4c3c2)cc1 [Example 29, 9-(4-Methoxy-phenylamino)-5H-benzo[c][1,8]naphthyridin-6-one] | 70 to 90% | < 7.00 | inhibition at 1 µM (AurA): 50 to 70%
COc1ccccc1CNc1ccc2c(=O)[nH]c3ncccc3c2c1 [Example 34, 9-(2-Methoxy-benzylamino)-5H-benzo[c][1,8]naphthyridin-6-one] | – | < 7.00 | inhibition at 1 µM (AurA): > 90%
Clc1nc2nccc(Oc3ccccc3)c2c2ccccc12 [Example 140, 6-Chloro-1-phenoxy-benzo[c][1,8]naphthyridine] | – | – | inhibition at 10 µM (SRC): 50 to 70%; inhibition at 10 µM (FYN): 50 to 70%; inhibition at 10 µM (ABL): 50 to 70%
O=C(O)c1ccc2c(c1)c(=O)[nH]c1nccc(Nc3ccc(NC(=O)c4ccccc4)cc3)c12 [Compound 268, 1-(4-Benzamidophenylamino)-6-oxo-5,6-dihydrobenzo[c][1,8]naphthyridine-8-carboxylic acid] | – | > 7.96 | –
CN1CCN(c2ccc3c(=O)[nH]c4nccc(Nc5ccc(NC(=O)c6ccccc6)cc5)c4c3c2)CC1 [Compound 294, N-(4-(9-(4-methylpiperazin-1-yl)-6-oxo-5,6-dihydrobenzo[c][1,8]naphthyridin-1-ylamino)phenyl)benzamide] | – | 7.00 to 7.96 | –
N#Cc1ccccc1CNc1ccc2c(=O)[nH]c3ncccc3c2c1 [Compound 462, 2-((6-oxo-5,6-dihydrobenzo[c][1,8]naphthyridin-9-ylamino)methyl)benzonitrile] | – | < 7.00 | –
CCOC(=O)c1cccc2c1c(=O)[nH]c1nccc(Nc3ccc(NC(=O)c4ccccc4)cc3)c12 [Compound 423, 1-[4-Benzoylamino-phenylamino)-6-oxo-5,6-dihydro-benzo[c][1,8]naphthyridin-7-carboxylic acid ethyl ester] | – | > 7.96 | –
O=C(Nc1ccc(Nc2ccnc3[nH]c(=O)c4ccccc4c23)cc1)c1cccc(C(F)(F)F)c1F [Compound 387, 2-Fluoro-N-[4-(6-oxo-5,6-dihydro-benzo[c][1,8]naphthyridin-1-ylamino)-phenyl]-3-trifluoromethyl-benzamide] | – | > 7.96 | –
O=C(c1ccccc1)N1CC(Nc2ccnc3[nH]c(=O)c4ccccc4c23)C1 [Compound 366, 1-(1-Benzoylazetidin-3-ylamino)benzo[c][1,8]naphthyridin-6(5H)-one] | – | < 7.00 | –
O=C(Cc1ccc(Nc2ccnc3[nH]c(=O)c4ccccc4c23)cc1)Nc1ccccc1 [Compound 303, 2-(4-(6-Oxo-5,6-dihydrobenzo[c][1,8]naphthyridin-1-ylamino)phenyl)-N phenylacetamide] | – | 7.00 to 7.96 | –
O=C(Nc1ccc(Nc2ccnc3[nH]c(=O)c4ccccc4c23)cc1)c1ncccc1F [Compound 506, 3-Fluoro-N-(4-(6-oxo-5,6-dihydrobenzo[c][1,8]naphthyridin-1-ylamino)phenyl)picolinamide] | – | 7.00 to 7.96 | –
O=C(Cc1ccccc1)N1CCC(Nc2ccnc3[nH]c(=O)c4ccccc4c23)C1 (stereo not shown) [Compound 369, 1-(1-(2-Phenylacetyl)pyrrolidin-3-ylamino)benzo[c][1,8]naphthyridin-6(5H)-one] | – | < 7.00 | –
O=C(Nc1ccc(Nc2ccnc3[nH]c(=O)c4ccccc4c23)cc1)C1(C(F)(F)F)CCCCC1 [Compound 499, N-(4-(6-Oxo-5,6-dihydrobenzo[c][1,8]naphthyridin-1-ylamino)phenyl)-1-(trifluoromethyl)cyclohexanecarboxamide] | – | 7.00 to 7.96 | –
O=C(O)c1ccc2c(=O)[nH]c3nccc(Nc4ccc(NC(=O)c5ccccc5)cc4)c3c2c1 [Compound 281, 1-(4-Benzamidophenylamino)-6-oxo-5,6-dihydrobenzo[c][1,8]naphthyridine-9-carboxylic acid] | – | > 7.96 | –
